Key:
spleen cells = assay: Radiation-induced apoptosis in splenocytes in vivo; settings: female C57/BL mice, 4Gy whole-animal γ-radiation, compared to animals dosed with vehicle alone
Experimental: Determination of the Effect of Cds1 Inhibitory Compounds on Radiation-Induced Apoptosis in Splenocytes in vivo
Female C57/BL mice, 6-8 weeks of age, were dosed by oral gavage or by injection with Cds1 inhibitory compound before and at regular intervals after radiation exposure. One to three hours after first compound dose, the animals were irradiated with γ-rays administered to the whole animal at a dose between 0.5 and 4 Gy. At times between 4 and 24 h after irradiation, the animals were sacrificed, and the tissues of interest were excised. […] Briefly, cells or tissues are fixed with formaldehyde and permeabilized with ethanol, and DNA ends are then labelled by attaching nucleotide derivatives such as BrdUTP using the enzyme terminal deoxynucleotidyl transferase. DNA ends can then be detected by incubating the cells or tissues with fluorescently-labelled antibodies reactive with BrdU. Quantification can be done by laser scanning cytometry, by visual microscopical examination or by FACS.

[1] = system: tumor cells from an established tumor cell line; assay: Effect of Cds1 inhibitors on tumor growth in murine xenograft models; assay type: in vivo; settings: xenograft in athymic nu/nu mice, compound plus local irradiation
Experimental: Effect of Cds1 Inhibitors on Tumor Growth in Murine Xenograft Models
One×10^6 to ten×10^6 tumor cells from an established tumor cell line are injected in the hind limbs of athymic nu/nu mice. Tumors are allowed to grow until they reach 30-100 mm^3. At that time mice are randomized into different treatment groups, and compound or vehicle is administered by injection or oral gavage. […] After this treatment tumor growth rate is followed by measurement of tumor size twice weekly in three orthogonal directions, which is used to calculate the tumor volume.

spleen B cells = assay: Radiation-induced apoptosis in isolated primary cells (Annexin V staining); assay type: cell-based, C57/BL6 mice; settings: isolated C57/BL6 spleen cells, 0.5-1 Gy 137Cs γ-radiation, Annexin V/propidium iodide FACS 6-24 h after irradiation
Experimental: Determination of the Effect of Cds1 Inhibitory Compounds on Radiation-Induced Apoptosis in Isolated Primary Cells
Spleen cells were isolated from C57/BL6 mice as follows: Spleens were disrupted by grinding between two frosted glass slides, and cells were passed through a cell strainer. Erythrocytes were lysed by incubation in ammonium chloride solution followed by careful washing of cells in isotonic medium. The spleen cells were plated in 60 mm petri dishes at 5×10^6 cells/mL in RPMI medium containing 10% fetal calf serum and Cds1 inhibitor. […] Determination of apoptotic cells by Annexin V staining was performed using the Annexin V-FITC Apoptosis Detection Kit™ (Cat# PF032 Oncogene Research Products) according to the manufacturer's instructions. Briefly, 6-24 h after irradiation, the cells were washed with buffered isotonic salt solution and suspended at 1×10^6 cells/mL in binding buffer (10 mM Hepes pH 7.4, 150 mM NaCl, 2.5 mM CaCl2, 1 mM MgCl2, 4% bovine serum albumin) containing 80 ng/mL Annexin V labelled with FITC and 0.4 μg/mL anti-B220 antibody labelled with allophycocyanin. The cells were then pelleted and resuspended in binding buffer containing 0.6 μg/mL propidium iodide. The stained cells were analyzed on a FACS machine (Fluorescence Activated Cell Sorter™, Becton Dickinson). […] Fraction of non-apoptotic B-cells or total cells were determined separately based on staining with the B220 antibody mentioned above.

[2] = system: cells from an established tumor line; assay: Effect of Cds1 inhibitory compounds on tumor cell line clonogenic survival; assay type: cell-based; settings: compound exposure 12 to 48 h with DNA-damaging second agent; compared to control group having no compound
Experimental: Typically 3 to 300 cells from an established tumor line were plated per cm^2 in petri dishes in the appropriate growth medium at 37° C. Cells were exposed to compounds dissolved in the growth medium from appropriately formulated stock solutions for times ranging from 12 to 48 h. During the course of compound exposure the cells were treated with a second agent with DNA-damaging capabilities, such as ionizing radiation or certain chemotherapeutic compounds. After this treatment regimen cells were incubated in growth medium containing no compound for a period of 7 to 14 days. At that time the cells were fixed with methanol and stained with 0.25% crystal violet. The number of colonies of cells exceeding 50 cells was determined for each treatment, and this number was used to calculate the effect of compounds on the survival of cells.

| SMILES | protection of spleen B cells from radiation-induced apoptosis (spleen B cells) | further results |
| --- | --- | --- |
| NC(=O)c1ccc2[nH]c(-c3ccc(Oc4ccc(Cl)cc4)cc3)nc2c1 [Example 1, 2-[4-(4-Chloro-phenoxy)-phenyl]-1H-benzoimidazole-5-carboxylic acid amide] | protected spleen B cells from radiation-induced apoptosis | protection of spleen cells from apoptosis (spleen cells): protection of spleen cells from apoptosis was observed; tumor growth rate (tumor volume) [1]: inconclusive; number of colonies of cells (clonogenic survival) [2]: decrease in the number of colonies of cells |
| NC(=O)c1ccc2[nH]c(-c3ccc(Oc4ccc5ccccc5c4)cc3)nc2c1 [Example 9, 2-[4-(2-Naphthyloxy)-phenyl]-1H-benzoimidazole-5-carboxylic acid amide] | protected spleen B cells from radiation-induced apoptosis | – |
| NC(=O)c1ccc2[nH]c(-c3ccc(Oc4ccc(Br)cc4)cc3)nc2c1 [Example 11, 2-[4-(4-Bromo-phenoxy)-phenyl]-1H-benzoimidazole-5-carboxylic acid amide] | protected spleen B cells from radiation-induced apoptosis | – |
| NC(=O)c1ccc2[nH]c(-c3ccc(Sc4ccc(F)c(Cl)c4)cc3)nc2c1 [Example 38, 2-[4-(3-Chloro-4-fluoro-phenylsulfanyl)-phenyl]-1H-benzoimidazole-5-carboxylic acid amide] | protected spleen B cells from radiation-induced apoptosis | – |
| NC(=O)c1ccc2[nH]c(-c3ccc(Sc4ccc(Cl)cc4)nc3)nc2c1 [Example 42, 2-[6-(4-Chloro-phenylsulfanyl)-pyridin-3-yl]-1H-benzoimidazole-5-carboxylic acid amide] | protected spleen B cells from radiation-induced apoptosis | – |
| Cc1ccc(Sc2ccc(-c3nc4cc(C(N)=O)ccc4[nH]3)cn2)cc1 [Example 43, 2-[6-(4-Methyl-phenylsulfanyl)-pyridin-3-yl]-1H-benzoimidazole-5-carboxylic acid amide] | protected spleen B cells from radiation-induced apoptosis | – |
| NC(=O)c1ccc2[nH]c(-c3ccc(Oc4ccc5c(c4)OCO5)cc3)nc2c1 [Example 84, 2-[4-(Benzo[1,3]dioxol-5-yloxy)-phenyl]-1H-benzoimidazole-5-carboxylic acid amide] | protected spleen B cells from radiation-induced apoptosis | – |
| NC(=O)c1ccc2[nH]c(-c3ccc(Sc4ccc(O)cc4)cc3)nc2c1 [Example 87, 2-[4-(4-Hydroxy-phenylsulfanyl)-phenyl]-1H-benzoimidazole-5-carboxylic acid amide] | protected spleen B cells from radiation-induced apoptosis | – |
| NC(=O)c1ccc2[nH]c(-c3ccc(Oc4ccc(Br)c(O)c4)cc3)nc2c1 [Example 88, 2-[4-(4-Bromo-3-hydroxy-phenoxy)-phenyl]-1H-benzoimidazole-5-carboxylic acid amide] | protected spleen B cells from radiation-induced apoptosis | – |
| NS(=O)(=O)c1ccc2[nH]c(-c3ccc(Oc4ccc(Cl)cc4)cc3)nc2c1 [Example 94, 2-[4-(4-Chloro-phenoxy)-phenyl]-1H-benzoimidazole-5-sulfonic acid amide] | protected spleen B cells from radiation-induced apoptosis | – |
| NC(=O)c1ccc2[nH]c(-c3ccc(Oc4ccc(I)cc4)cc3)nc2c1 [Example 97, 2-[4-(4-Iodo-phenoxy)-phenyl]-1H-benzoimidazole-5-carboxylic acid amide] | protected spleen B cells from radiation-induced apoptosis | – |
